{"source": "patent US20220177511A1", "about": "“SERIES OF HALOGENATED TETRACYCLIC TRITERPENE DERIVATIVES AND THEIR PREPARATION AND APPLICATION” (SHANGHAI KING-X BIOTECH CO., LTD, priority 2019, published 2022)", "key": {"[1]": {"assay": "Stability test of compound 2 in fresh rat whole blood", "format": "in vitro ADME", "parameters": "half-life: dose or concentration left out as unconfirmed", "protocol": "Preparation of the tested product: Compound 2 was dissolved with an appropriate amount of dimethyl sulfoxide (DMSO) to obtain a 400 μM solution.\n1) Fresh rat whole blood is added to the EP tube and shaken gently to mix.\n2) Pre-incubate the EP tube in a water bath at 37° C. for 5 minutes.\n3) Add Compound 2 and incubate at 37° C.\n4) Every 50 μL of sample was taken from the sample tube to the stop tube (containing 5 μL internal standard, 5 μg/mL tolbutamide) at 0, 3 min, 6 min, 15 min, 30 min, and 60 min. 150 μL of acetonitrile was added and shaked to stop reaction, which was incubated in PBS system for 0 and 60 min.\n5) Centrifuge for 5 min at 4° C. (13000 r/min), aspirate the supernatant, and analyze the sample.\n50 μL of rat whole blood was added with 5 μL of internal standard working solution (5 μg/mL tolbutamide). 150 μL of acetonitrile was used to precipitate the proteins. The sample was centrifuged at 13,000 rpm and 4° C. for 5 min. The upper organic phase was taken and filtered with a 0.22 μM microporous membrane, which was then analyzed by LC-MS/MS. […]\nThe In residual rate of compound 2 in the incubation system was plotted against the incubation time, and the slope k was obtained by linear regression. T1/2 (min) was calculated according to the formula (T1/2=−0.693/k)."}, "C57 mouse CHF model": {"tested_on": "C57 mouse CHF model", "assay": "In vivo efficacy on chronic heart failure in mice (coronary artery ligation, echocardiography), enalapril control", "conditions": "for Cardiac output per minute (CO), day 28 vs day 0: p<0.01 or p<0.05 (FIG. 6)", "protocol": "C57 mouse coronary artery ligation method was used in this experiment to prepare the mouse CHF model. The differences in echocardiography, hemodynamics and histopathology of the model were observed after administration. Test substance: compound 2. Solvent: 0.3% sodium carboxymethyl cellulose. Dosage: 1 mg/kg, 3 mg/kg, 10 mg/kg, 30 mg/kg and 100 mg/kg. Route of administration: intragastric. Control drug: enalapril 2 mg/kg. Strain: C57 mouse; Age: 7 weeks; Weight: 18-20 g; Gender: Male; Grade: SPF C57 mouse CHF model was established by coronary artery ligation method in this experiment. The differences in echocardiography, hemodynamics and histopathology of the model were observed after administration. 5 dose groups were set for compound 2 in this experiment. Enalapril was selected as the positive control. Once daily for 28 consecutive days. The doses for each group was 1 mg/kg, 3 mg/kg, 10 mg/kg, 30 mg/kg and 100 mg/kg. Positive control group: Enalapril (2 mg/kg) was administered after CHF was established. The mice were anesthetized in a box filled with isoflurane. After the mice were anesthetized, the left 4th intercostal space was opened to expose the left atrial appendage and left ventricle. It can be seen that the left coronary artery runs downward from the middle of the left atrial appendage to the anterior wall of the left ventricle. The coronary artery is sutured at a high position about 1 mm from the lower border of the left atrial appendage. After ligation, the myocardium gradually changes from fleshy red to pale white, indicating myocardial infarction. The model is successfully established, and the chest is closed layer by layer. After the spontaneous breathing of the mice recovered, the mice were caged and reared in a day-night cycle with free access to water and food. After being reared for 30 days, the chronic heart failure model was detected by echocardiography, and the mice with successful chronic heart failure model were selected. Qualified CHF mice screened by echocardiography were randomly grouped. Mice were given compound 2 by intragastric administration once daily for 28 consecutive days. The body weight of mice was measured every week, and echocardiography was performed after 28 days of administration. After the […] anesthetized, 1 mm^3 tissue was taken from the hearts of 3 mice in each group, fixed with electron microscope fixative, and detected by transmission electron microscope to observe the ultrastructure of the heart. All remaining heart tissues were fixed with 10% formaldehyde, and stained with HE for histopathology to observe histopathological changes."}, "[2]": {"assay": "Metabolic stability in rat liver microsomes", "format": "in vitro ADME"}, "[3]": {"tested_on": "chronic heart failure mice", "assay": "Pharmacodynamic comparison of LCZ696 and compound 2 in chronic heart failure mice (echocardiography)", "format": "in vivo", "conditions": "for CO / EF / FS / HR: Compound 2 group; for EF, day 28 vs day 0 (words) / short-axis shortening rate (FS %), day 28 vs day 0 (words): chronic heart failure mice, p<0.0005 (FIG. 8)", "text": "With EF<50%, chronic heart failure mice were selected.\nThe mice were detected by cardiac ultrasound after 28 days of administration."}, "[4]": {"conditions": "mice with heart failure, intragastric once daily 28 days, dose not stated"}, "[5]": {"conditions": "chronic heart failure mice (FIG. 9)"}}, "note": "“Also recorded” adds a separate entry of the source."}
{"smiles": "CC(C)(O)[C@@H]1CC[C@](C)([C@H]2[C@@H](O)C[C@@]3(C)[C@@H]4C[C@H](O)[C@H]5C(C)(C)C(F)(F)CC[C@@]56C[C@@]46CC[C@]23C)O1", "note": "[Compound 2, (2aR,3R,4S,5aS,5bS,7S,7aR,11aR,12aS)-9,9-difluoro-3-((2R,5S)-5-(2-hydroxypropan-2-yl)-2-methyltetrahydrofuran-2-yl)-2a,5a,8,8-tetramethyltetradecahydro-1H,12H-cyclopenta[a]cyclopropa[e]phenanthrene-4,7-diol]", "values": [{"measurement": "half-life", "setting": "[1]; fresh rat whole blood, rat whole blood, 37° C., 0-60 min, read-out: In vitro T1/2", "result": 10.7, "unit": "h"}, {"measurement": "stability in rat whole blood", "setting": "[1]; incubation 3, 6, 15, 30 and 60 min", "result": "relatively stable"}, {"measurement": "Short axis shortening rate (FS %), day 28 vs day 0", "setting": "C57 mouse CHF model; 10 mg/kg group, p<0.0005 (FIG. 7)", "result": "significant increase; also recorded: significant elevated"}, {"measurement": "EF value, day 28 vs day 0", "setting": "C57 mouse CHF model; 10 mg/kg group, p<0.0005, highest increase p<0.0001 (FIG. 5)", "result": "significantly increased"}, {"measurement": "Cardiac output per minute (CO), day 28 vs day 0", "setting": "C57 mouse CHF model; 10 mg/kg group", "result": "significantly increased"}, {"measurement": "EF value, day 28 vs day 0", "setting": "C57 mouse CHF model; 30 mg/kg group, p<0.0005 (FIG. 5)", "result": "significantly increased"}, {"measurement": "Cardiac output per minute (CO), day 28 vs day 0", "setting": "C57 mouse CHF model; 30 mg/kg group", "result": "significantly increased"}, {"measurement": "Cardiac output per minute (CO), day 28 vs day 0", "setting": "C57 mouse CHF model; 100 mg/kg group", "result": "significantly increased"}, {"measurement": "CO per minute", "setting": "C57 mouse CHF model; [4]", "result": "significantly increased"}, {"measurement": "ejection fraction (EF)", "setting": "C57 mouse CHF model; [4]", "result": "significantly increased"}, {"measurement": "heart rate (HR)", "setting": "C57 mouse CHF model; [4]", "result": "without increasing"}, {"measurement": "short-axis shortening rate (FS)", "setting": "C57 mouse CHF model; [4]", "result": "significantly increased"}, {"measurement": "metabolic stability in rat liver microsomes", "setting": "[2]; compared with compound 5 (cycloastragenol)", "result": "relatively stable; also recorded: more stable than cycloastragenol"}, {"measurement": "half-life at 5 µM", "setting": "[2]; liver microsomes, 5 μM compound, 37° C.", "result": 8.63, "unit": "h"}, {"measurement": "CO", "setting": "[3]; Day 0", "result": "33.39 ± 2.45", "unit": "mL/min"}, {"measurement": "EF", "setting": "[3]; Day 0", "result": "25.04 ± 1.87", "unit": "%"}, {"measurement": "FS", "setting": "[3]; Day 0", "result": "9.65 ± 0.84", "unit": "%"}, {"measurement": "HR", "setting": "[3]; Day 0", "result": "564.5 ± 14.96", "unit": "times/min"}, {"measurement": "CO", "setting": "[3]; Day 28", "result": "48.09 ± 3.69", "unit": "mL/min"}, {"measurement": "EF", "setting": "[3]; Day 28", "result": "43.83 ± 3.62", "unit": "%"}, {"measurement": "FS", "setting": "[3]; Day 28", "result": "18.86 ± 2.17", "unit": "%"}, {"measurement": "HR", "setting": "[3]; Day 28", "result": "579.3 ± 12.44", "unit": "times/min"}, {"measurement": "Cardiac output per minute (CO), day 28 vs day 0 (words)", "setting": "[3]; [5]", "result": "significantly improved"}, {"measurement": "Heart rate (HR), day 28 vs day 0", "setting": "[3]; [5]", "result": "no significant change"}, {"measurement": "Cardiac output per minute (CO), day 28 vs day 0 (words)", "setting": "[3]; chronic heart failure mice (FIG. 9), listed as compound 2", "result": "increased significantly"}, {"measurement": "EF, day 28 vs day 0 (words)", "setting": "[3]", "result": "significantly improved"}, {"measurement": "short-axis shortening rate (FS %), day 28 vs day 0 (words)", "setting": "[3]", "result": "significantly improved"}, {"measurement": "EF, day 28 vs day 0 (words)", "setting": "[3]; listed as compound 2", "result": "significantly increased"}, {"measurement": "short-axis shortening rate (FS %), day 28 vs day 0 (words)", "setting": "[3]; listed as compound 2", "result": "more significant"}, {"measurement": "left ventricular ejection fraction EF % increased by", "setting": "[3]; compound 2 group, after 28 days of administration", "result": 75.04, "unit": "%"}]}
